Measured values taken from PubChem BioAssay (NCI).
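Five concentrations, 48 hours, 96-well plates. TGI denotes the concentration required for complete inhibition of growth.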

Assays:
Assay in all cases: growth of human tumour cells (NCI), 48 h
OVCAR-4 ovarian = system: OVCAR-4 ovarian
SF-268 CNS = system: SF-268 CNS
NCI-H23 lung = system: NCI-H23 lung
OVCAR-3 ovarian = system: OVCAR-3 ovarian
SNB-75 CNS = system: SNB-75 CNS
U251 CNS = system: U251 CNS
HCC-2998 colon = system: HCC-2998 colon
SW-620 colon = system: SW-620 colon
HT29 colon = system: HT29 colon
MDA-MB-435 = system: MDA-MB-435
K-562 leukemia = system: K-562 leukemia
CAKI-1 renal = system: CAKI-1 renal
MDA-MB-231 breast = system: MDA-MB-231 breast
RPMI-8226 leukemia = system: RPMI-8226 leukemia
OVCAR-8 ovarian = system: OVCAR-8 ovarian
MALME-3M melanoma = system: MALME-3M melanoma
UACC-257 melanoma = system: UACC-257 melanoma
NCI-H460 lung = system: NCI-H460 lung
SN12C renal = system: SN12C renal
SF-295 CNS = system: SF-295 CNS
SNB-19 CNS = system: SNB-19 CNS
UO-31 renal = system: UO-31 renal
NCI/ADR-RES ovarian = system: NCI/ADR-RES ovarian
HCT-116 colon = system: HCT-116 colon
HOP-62 NSCLC = system: HOP-62 NSCLC
BT-549 breast = system: BT-549 breast
MOLT-4 leukemia = system: MOLT-4 leukemia
KM12 colon = system: KM12 colon
A549 NSCLC = system: A549 NSCLC
SK-MEL-2 melanoma = system: SK-MEL-2 melanoma
HL-60(TB) leukemia = system: HL-60(TB) leukemia
MDA-N = system: MDA-N
786-0 renal = system: 786-0 renal
SR leukemia = system: SR leukemia
NCI-H522 lung = system: NCI-H522 lung
LOX IMVI melanoma = system: LOX IMVI melanoma
NCI-H226 lung = system: NCI-H226 lung
IGROV1 ovarian = system: IGROV1 ovarian
RXF 393 renal = system: RXF 393 renal
CCRF-CEM leukemia = system: CCRF-CEM leukemia
SK-MEL-5 melanoma = system: SK-MEL-5 melanoma
DU-145 prostate = system: DU-145 prostate
A498 renal = system: A498 renal
ACHN renal = system: ACHN renal
MCF7 breast = system: MCF7 breast
COLO 205 colon = system: COLO 205 colon
SF-539 CNS = system: SF-539 CNS
TK-10 renal = system: TK-10 renal
HOP-92 NSCLC = system: HOP-92 NSCLC
T-47D breast = system: T-47D breast
HS 578T breast = system: HS 578T breast
EKVX NSCLC = system: EKVX NSCLC
M14 melanoma = system: M14 melanoma
SK-MEL-28 melanoma = system: SK-MEL-28 melanoma
SK-OV-3 ovarian = system: SK-OV-3 ovarian
PC-3 prostate = system: PC-3 prostate
UACC-62 melanoma = system: UACC-62 melanoma
OVCAR-5 ovarian = system: OVCAR-5 ovarian
HCT-15 colon = system: HCT-15 colon

Measured: TGI

CC(=O)Oc1ccc2oc(=O)cc(C)c2c1
not listed: SK-OV-3 ovarian | PC-3 prostate | UACC-62 melanoma | OVCAR-5 ovarian | HCT-15 colon
> 100 µM: all other assays above

CC1(C(=O)O)CCC(C(=O)O)C(C)(C)O1 (stereo not given)
not listed: MDA-MB-231 breast | HL-60(TB) leukemia | 786-0 renal | SR leukemia | A498 renal | HCT-15 colon
> 100 µM: all other assays above

CC(C)OP(=O)(c1ccccc1)c1ccc2c(c1)OCCOCCOCCOCCO2 (stereo not given)
not listed: OVCAR-4 ovarian | OVCAR-3 ovarian | U251 CNS | CAKI-1 renal | NCI/ADR-RES ovarian | SK-MEL-2 melanoma | SR leukemia | RXF 393 renal | HOP-92 NSCLC | M14 melanoma | OVCAR-5 ovarian
> 100 µM: all other assays above
